Assay results: patent US9233995B2, “Quinazoline derivatives and quinazoline complex protein kinase inhibitor for inhibiting multiplication of tumor cells and preparation method thereof” (INSTITUTE OF CHEMISTRY, CHINESE ACADEMY OF SCIENCES, priority 2010, dated 2016)

Legend:
[1] = system: human non-small cell lung cancer cell line A549; experiment: Cytotoxicity experiment, SRB method, tumor cell proliferation; assay type: cell-based; settings: A549, 48 h, read-out: IC50 (μmol/L) Non-small cell lung cancer cell A549
Procedure: (§1) Human breast cancer cell line (drug-resistant) MCF-7/A, human breast cancer cell line (sensitive) MCF-7/S, prostate cancer cell PC-3, keratinocyte Colo-16, human non-small cell lung cancer cell line A549 and etc. are cultured in RPMI1640 medium (Invitrogen, USA) containing 10 wt % fetal bovine serum (FBS, Hyclone, USA), and epidermal growth factor (EGF) at a concentration of 100 ng/ml is added to stimulate growth. After 2-3 days, cells in logarithmic growth phase are collected, and inoculated at 96 well plates (6500 cells/well/100 ul, RPMI1640 containing 100 ng/mL EGF) for 24 h, and then compound at gradient concentrations (200, 100, 50, 25, 12.5, 6.25, 1 μM/L) are added. The same volume of RPMI1640 containing 1 wt % of dimethyl sulfoxide (DMSO) is used as control group of the experiment; the blank group is only culture medium without cell. Three parallel wells are set up for each concentration group. After incubation is continued for 48 h, the cell survival rate is measured by SRB method. Results are shown in Table 2 and Table 3, respectively.
(§2) Wherein, for experiment on compound cytotoxicity assay by sulforhodamine B (SRB) method: Cells in the logarithmic growth phase are collected and inoculated at 96-well plates (6500 cells/well/100 ul, RPMI1640 containing 100 ng/ml of EGF). After incubation for 24 h, compounds at gradient concentrations (200, 100, 50, 25, 12.5, 6.25, 1 (μM/L)) are added. The same volume of RPMI1640 containing 100 ng/ml of EGF is used as control group of the experiment; the blank group is only culture medium without cell. Three parallel wells are set up for each concentration group. After incubation is continued for 48 h, the cell survival rate is measured by SRB method. 50 μl 10% trichloroacetic acid (TCA) pre-cooled (4° C.) is added to each well, it is fixed for 1 hour at 4° C., washed with water for five times, and completely dried, and then 100 μl of SRB solution (Sigma, USA) at concentration of 0.4% by weight is added, and staining is performed at 37° C. in the dark for 30 min. Wash with acetic acid at a concentration of 1% by weight for 4-5 times, dry in the air, add 200 μl of Tris solution (10 mM, pH 10.5), after sufficiently dissolved, the absorbance (absorption wavelength is 570 nm) is measured in microplate reader.
(§3) The growth inhibition rate (IR) is calculated according to the following formula: IR (%)=[1−(experiment group A value−blank group A value)/(control group A value−blank group A value)]×100%, and the IC50 value is calculated using Origin 6.0 software.

[2] = system: prostate cancer cell PC-3; experiment: as above; assay type: cell-based; settings: PC-3, 48 h, SRB; read-out: IC50 (μmol/L) Prostate cancer cell PC-3
Procedure: as §1, §2, §3

[3] = system: Human breast cancer cell line (drug-resistant) MCF-7/A; experiment: as above; assay type: cell-based; settings: 48 h, read-out: IC50 (umol/L) Breast cancer cell (drug-resistant) MCF-7/A
Procedure: as §1, §2, §3

[4] = system: human breast cancer cell line (sensitive) MCF-7/S; experiment: as above; assay type: cell-based; settings: 48 h, read-out: IC50 (umol/L) Breast cancer cell (sensitive) MCF-7/S
Procedure: as §1, §2, §3

keratinocyte Colo-16 = experiment: as above; assay type: cell-based; settings: Colo-16, 48 h, SRB; read-out: IC50 (μmol/L) Keratinocyte Colo-16
Procedure: as §1, §2, §3

[5] = Stability (physicochemical properties, Table 1); settings: for Stability (photostability): light
[6] = system: human breast cancer cell line (sensitive) MCF-7/S + EGF; experiment: Cytotoxicity experiment under the condition of additional EGF, SRB method; assay type: cell-based; settings: MCF-7/S with additional EGF 100 ng/ml, 48 h, SRB; read-out: IC50 (umol/L) Breast cancer cell (sensitive) MCF-7/S + EGF
Procedure: Human breast cancer cell line (sensitive) MCF-7/S and human non-small cell lung cancer cell line A549 are cultured in HAM′S/F-12 medium (HyClone, USA) containing 10 wt % fetal bovine serum (FBS, Hyclone, USA), and 100 ng/ml epidermal growth factor (EGF, Sigma, USA) is added to this medium. Cells described above were purchased from Cell Resource Center, Shanghai Institute for Biological Science, CAS, they are placed in a CO2 incubator and used for the experiment 3-5 days later.
as §2, §3

[7] = molecular target: T1, EGFR (Epidermal Growth Factor Receptor) (Homo sapiens, UniProt P00533); experiment: Enzyme-linked immunosorbent assay (ELISA), kinase inhibitory activity (phosphorylation of PTP1B(Tyr66) biotinylated peptide substrate); assay type: biochemical; settings: average of two independent parallel experiments
T1 construct: purchased CST
Source text: Protein kinase assay kit: PTP1B(Tyr66) Biotinylated Peptide from CST company is used as a substrate of kinase EGFR (Epidermal Growth Factor Receptor).

[8] = Solubility (physicochemical properties, Table 1); settings: room temperature, atmospheric pressure

T1 sequence (P00533 25-1210): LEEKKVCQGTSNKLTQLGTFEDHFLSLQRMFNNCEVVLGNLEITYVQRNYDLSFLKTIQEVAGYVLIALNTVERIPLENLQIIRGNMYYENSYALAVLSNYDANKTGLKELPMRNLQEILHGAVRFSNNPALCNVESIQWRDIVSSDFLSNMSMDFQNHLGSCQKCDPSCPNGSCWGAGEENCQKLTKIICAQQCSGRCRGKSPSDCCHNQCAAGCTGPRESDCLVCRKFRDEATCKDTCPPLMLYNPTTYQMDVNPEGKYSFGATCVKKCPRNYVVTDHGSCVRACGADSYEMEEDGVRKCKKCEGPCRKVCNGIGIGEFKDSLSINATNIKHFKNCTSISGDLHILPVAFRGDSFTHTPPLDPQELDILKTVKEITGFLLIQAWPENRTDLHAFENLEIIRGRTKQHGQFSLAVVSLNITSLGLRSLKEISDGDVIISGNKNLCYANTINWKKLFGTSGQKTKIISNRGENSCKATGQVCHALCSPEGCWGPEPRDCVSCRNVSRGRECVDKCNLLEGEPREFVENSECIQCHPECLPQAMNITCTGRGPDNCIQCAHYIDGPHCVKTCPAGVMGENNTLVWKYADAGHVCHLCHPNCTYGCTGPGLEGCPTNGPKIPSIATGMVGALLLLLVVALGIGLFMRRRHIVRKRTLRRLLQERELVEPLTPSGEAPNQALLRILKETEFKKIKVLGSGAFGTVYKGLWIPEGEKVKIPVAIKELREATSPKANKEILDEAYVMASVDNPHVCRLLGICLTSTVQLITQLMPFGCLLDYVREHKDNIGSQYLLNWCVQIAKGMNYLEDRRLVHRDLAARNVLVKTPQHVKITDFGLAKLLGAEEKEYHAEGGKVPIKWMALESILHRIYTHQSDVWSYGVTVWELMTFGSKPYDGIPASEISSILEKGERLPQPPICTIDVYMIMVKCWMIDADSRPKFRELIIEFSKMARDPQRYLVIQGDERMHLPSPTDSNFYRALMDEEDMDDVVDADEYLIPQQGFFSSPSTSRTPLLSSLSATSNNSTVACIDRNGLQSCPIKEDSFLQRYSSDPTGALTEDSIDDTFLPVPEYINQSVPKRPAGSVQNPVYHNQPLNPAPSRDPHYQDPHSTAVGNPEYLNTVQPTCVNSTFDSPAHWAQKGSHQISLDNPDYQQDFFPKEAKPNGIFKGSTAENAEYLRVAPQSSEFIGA

SMILES	IC50 [1] [µmol/L]	IC50 [2] [µmol/L]	IC50 [3] [µmol/L]	IC50 [4] [µmol/L]	IC50 (keratinocyte Colo-16) [µmol/L]	Stability (in air) [5]	Stability (photostability) [5]	IC50 [6] [µmol/L]	IC50 [7] [µM]	Solubility in DMSO [8]	Solubility in methanol and ethanol [8]	Solubility in water [8]
COc1cc2ncnc(Nc3ccc(F)c(Cl)c3)c2cc1OCC[N]1CC[NH][Ru+]1([Cl])[c]1cc(C(C)C)ccc1C.F[P-](F)(F)(F)(F)F (stereo not drawn) [ZW2001]	> 100	> 100	> 100	> 100	42.8 ± 2.46	Stable in air,	photostable	56.1 ± 2.66	0.081	Highly soluble in DMSO	soluble in water, soluble in methanol	slightly
COc1cc2ncnc(Nc3ccc(F)c(Cl)c3)c2cc1OCC[N]1CC[NH][Ru+]1([Cl])[c]1cccc(-c2ccccc2)c1.F[P-](F)(F)(F)(F)F (stereo not drawn) [ZW2003]	> 100	81.3 ± 6.94	> 100	79.1 ± 11.6	54.2 ± 4.98	Stable in air,	photostable	28.7 ± 8.75	0.126	Highly soluble in DMSO	soluble in water, soluble in methanol	slightly
COc1cc2ncnc(Nc3ccc(F)c(Cl)c3)c2cc1OCCC[N]1CC[NH][Ru+]1([Cl])[c]1cccc(-c2ccccc2)c1.F[P-](F)(F)(F)(F)F (stereo not drawn) [ZW2006]	> 100	43.8 ± 3.9	> 100	48.8 ± 7.82	55.8 ± 1.55	Stable in air,	photostable	21.7 ± 7.44	0.0762	Highly soluble in DMSO	soluble in water, soluble in methanol	slightly
